Assay results as given in a melting point compilation (Tetko et al.; mined from patent text by program, amines drawn as free bases though some values may be those of a salt).

| Structure (SMILES) | melting point [°C] |
| --- | --- |
| COCC(O)CN1CCN(c2cc3c(cc2F)c(=O)c(C(=O)O)c2n3CCS2)CC1 (centres undefined) | 224 |
| CCc1nn(CCOC(N)=O)c(CC)c1Cc1cc(Cl)cc(Cl)c1 | 145 to 147 |
| CC1CC(c2cc3ccc(F)cc3s2)CCN1 (centres undefined) | 34 to 37 |
| C[C@H](c1ccccc1)N1CCO[C@@H](c2ccc(Br)cc2)C1 | 85 to 87 |
| CN(Cc1sc2c(=O)c(C(=O)NCc3ccc(Cl)cc3)cn(C)c2c1COCC[Si](C)(C)C)C[C@@H](O)c1ccco1 | 110 to 113 |
| COc1cc2c(cc1C(F)(F)F)N(C(=O)Nc1ccc(C)c(-c3cnccc3C)c1)CC2 | 138 to 140 |
| ClC(Cl)(Cl)c1nc(-c2ccc(OCCCn3ccnc3)cc2)no1 | 102 to 103 |
| CN1CN=C2C=C(Nc3ccc(I)cc3F)C(F)(C(N)=O)C=C21 (centres undefined) | 265 to 268 |
| Cc1ccc(-c2cc(C(=O)O)nn2Cc2ccc(C)c(Cl)c2)cc1C | 163 |
| CS(=O)(=O)c1cc(F)cc2c3c(n(Cc4ccc(Cl)cc4)c12)[C@@H](CC(=O)O)CC3 | 175 |
| O=C1N(c2cc(Cl)nc(Cl)c2)C(=O)C2(Cc3ccc(O)cc3)CCCN12 (centres undefined) | 165 |
| CC(C)(C)OC(=O)N1CCN(C(=O)Nc2ccccc2)CC1 | 168 to 169 |
| CC(C)(C)Oc1ccc(CCC(=O)OCc2ccc([N+](=O)[O-])cc2)cc1 | 30 to 32 |
| Cc1cc2c(s1)Nc1ccccc1N=C2N1CCN(C)[C@@H](COc2ccccc2)C1 | 74 to 88 |
| CC(C=CCC(C)(C)O)C1CCC2C3=CC=C4CC(O)CCC4(C)C3CCC21C (centres undefined) | 198 to 200 |
| CCCCNC(=O)C(C)Oc1ccc(COc2ccc(Cl)cc2)cc1 (centres undefined) | 98 |
| O=C1c2c(Br)cccc2-n2cnc(-c3noc(CCl)n3)c2[C@@H]2CCN12 | 210 to 211 |
| O=S(=O)(Cl)c1ccc2c(S(=O)(=O)Cl)cc(S(=O)(=O)Cl)cc2c1 | 195 to 197 |
| Cc1ccc(C)n1-c1ccc2ccc3[nH]c(=O)c(=O)n(CC(=O)NCc4ccccc4)c3c2c1 | 243 to 244 |
| Cc1c(NC(=O)c2ccc(-c3ccccc3)c(F)c2)ccc2cc(CN3CCCCC3)cnc12 | 138 to 139 |
| O=C1NC(O)C2=C1CN=C(c1ccccc1Cl)c1cc(Cl)ccc12 (centres undefined) | 247 to 249 |
| Cc1ccc([N+](=O)[O-])cc1CCl | 56 to 62 |
| CCOC(=O)Cc1ccnc2c([N+](=O)[O-])cccc12 | 67 to 69 |
| Cc1nnc(-c2ccc(C)c(Br)c2)o1 | 91 to 93 |

| Structure (SMILES) | melting point [°C] |
| --- | --- |
| CC1(CCc2ccccc2)OC(=O)CC(=O)O1 | 63 to 65 |
| O=C1CCN(C(=O)c2cc(C(F)(F)F)cc(C(F)(F)F)c2)CC1 | 155 to 157 |
| CC1(C)C(=O)N(c2ccc(C#N)c(C(F)(F)F)c2)C(=O)N1CCCCO | 102 to 103 |
| CCC(=O)c1cnc2c(c1)oc(=O)n2C | 110 to 112 |
| COc1cc2c(cc1C)CCN=C2CCc1ccc(Cl)cc1 | 122 to 124 |
| CNc1nc(C)c(-c2nc3ccccc3c(=O)n2-c2ccccc2C)s1 | 218 to 220 |
| O=C(O)c1cccc(Oc2ncc(C(F)(F)F)cc2Cl)c1 | 158 |
| CC[C@H]1CNC[C@H]1NC(=O)OC(C)(C)C | 63.5 to 65.5 |
| CN1CCN2c3ccc(Cl)cc3C(c3ccco3)=[N+]([O-])CC2C1 (centres undefined) | 202 to 204 |
| Cc1ccc(SN(C)C(=O)Oc2cccc3c2OC(C)(C)C3)cc1 | 62 |
| CC1N(C)C=C([N+](=O)[O-])N1CCOC(=O)Nc1cccc(C(N)=O)c1 (centres undefined) | 207 |
| CS(=O)(=O)CCC(C#N)CC#N (centres undefined) | 123 to 125 |
| CC(C)(C)c1ccc2c(c1)OC(C(F)(F)F)C(C(=O)O)=C2 (centres undefined) | 166 to 167 |
| CCCCc1nc2cc(C)c(C)cc2n1Cc1ccc(C#N)cc1 | 160 |
| CCOC(=O)c1cccc(-c2ccc(C#N)cc2)c1 | 91.5 to 92 |
| CCn1c(=O)c2[nH]c(/C=C/c3ccc(Br)cc3)nc2n(CC)c1=O | > 270 |
| CCCN(CCC)C(=O)CC1CN(Cc2ccccc2)c2ccc(OC(=O)Nc3ccc(C(C)C)cc3)cc21 (centres undefined) | 157 to 161 |
| CCN1C(=O)C(C)(C)C(=O)N(C)c2cc(CN(CCn3ccc4occc4c3=O)Cc3cc(C)nn3C)ccc21 | 161 to 165 |
| COc1cc2ncnc(N3CCN(C(=S)Nc4cc(O)nc(O)n4)CC3)c2cc1OC | 283 to 285 |
| O=C(NC1CCCCC1)c1c(O)c2cc(F)ccc2n(Cc2ccccc2)c1=O | 130 to 134 |
| COc1cc2c(cc1-c1ncco1)-c1c(-c3cncs3)c3c(n1CC2)C(=O)N(C(C)(C)C)CCCC3 | 205 to 207 |
| CN(C)c1nnc(NN)c(=O)[nH]1 | 264 to 266 |
| COc1cc2c3c(cccc3c1N1CCCCC1)C(=O)N(O)C2=O | 204 to 205 |

The remaining lines, values ahead:

| melting point [°C] | Structure (SMILES) |
| --- | --- |
| 202 to 204 | CCN(CC)CCNc1ccc(NCCN(CC)CC)c2c1C(=O)c1c(O)ccc(O)c1C2=O |
| 141 to 142 | Clc1cc2c(cc1Cl)CCC(N1CCCC1)=C2 |
| 173 to 175 | N#Cc1ccc(N(Cc2ccc(OCc3ccccc3)cc2)n2cnnc2)cc1-c1ccc(C(F)(F)F)cc1 |
| 150 to 153 | CCC(C)(C)OC(=O)NC(C)(Cc1c[nH]c2ccccc12)C(=O)NCCc1ccc(Cl)cc1 (centres undefined) |
| 46 to 47 | CCCCc1oc2ccccc2c1C(=O)c1ccc(OCCBr)cc1 |
| 98 to 100 | O=C(CCc1ccc(OCCS(=O)(=O)CCOC(c2ccc(Cl)cc2)c2ccc(Cl)cc2)cc1)C(F)(F)F |
| 137 | Cc1nn(C)c(F)c1C(=O)Nc1cccc2c1C(C)CC2(C)C (centres undefined) |
| 104 to 107 | O=C(NOCC(O)CN1CCCCC1)c1cccc2ccccc12 (centres undefined) |
| 174 | Cc1c(-c2ccc(C(F)(F)F)cc2)n(Cc2ccc(OCCN3CCCCC3)cc2)c2ccc(O)cc12 |
| 98 to 100 | CC(C)C(C)(N)C(N)=S (centres undefined) |
| 69 to 70 | CNc1cc(Cl)cc(C)n1 |
| 297 to 300 | Cc1nc(NC(=O)NC(C)(C)C)ccc1-c1ccncc1 |
| 130 to 132 | COc1cc(C(=O)N2CCN(C(=O)C3=Cc4cc(OCc5ccccc5)c(OCc5ccccc5)cc4CCC3)CC2)cc(OC)c1OC |
| 180 to 187 | NS(=O)(=O)Cc1ccc(NCC(=O)N2CCC(Oc3ccc(Cl)cc3)CC2)cc1 |
| 160 to 162 | COC(=O)c1cc2cc(OC)ccc2cc1/N=C/N(C)C |
| 231 to 232 | Cn1ncc2c1-c1c(Sc3ccccn3)sc(C(=O)O)c1CC2 |
| 147 to 149 | CC1(C)CN(c2c(C#N)cnn2-c2ccc(Cl)c(Cl)c2Cl)C1=O |
| 120 to 122 | Nc1ccc(OCC(=O)N2CC=C(c3ccc(F)cc3)CC2)cc1 |
| 129 to 140 | C[Si](C)(C)c1cc(C(F)=C(F)C(F)(F)F)c(S(N)(=O)=O)s1 |
| 221 | NCCCCCC(=O)Nc1cccc(C(=O)NCCC(=O)O)c1 |
| 130 to 132 | COc1cc(CCc2ccc(N)nn2)cc(OC)c1OC |
| 222 to 223 | CC(=O)Nc1nc(CCc2ccc(NC(=NC(=O)OC(C)(C)C)NC(=O)OC(C)(C)C)cc2)c(C(=O)O)s1 |
| 233 to 235 | O=C(Cn1c(=O)[nH]c2ccccc21)c1c(-c2ccccc2)nc2ccccn12 |
| 245 to 247 | Cc1nc(N)nc(N)c1-c1cccc(Cl)c1Cl |
| 132 to 133 | CN=c1c2c(C)c(C)n(-c3ccccc3)c2nc(C)n1C |
| 249 to 251 | CCCOc1ccc(S(=O)(=O)N2CCN(C(C)=O)CC2)cc1-c1nc2cc(N)c([N+](=O)[O-])cc2c(=O)[nH]1 |

| melting point [°C] | Structure (SMILES) |
| --- | --- |
| 240 to 242 | COC(=O)c1c(C(=O)OC)c(-c2ccc(OC)cc2)n2c1Cc1cc(OC)ccc1-2 |
| 247 | N#Cc1c(Cl)c2cc(Cl)cnc2[nH]c1=O |
| 134 to 136 | Cn1c(CC#N)ccc1C(=O)c1ccc(F)cc1 |
| 335 to 337 | Cc1nnc2nc(-c3ccccc3)c3cc(Cl)ccc3n12 |
| 92 to 93 | O=C1OC(Cc2ccc([N+](=O)[O-])cc2)C(=O)N1Cc1ccccc1 (centres undefined) |
| 198 to 200 | COc1ccc(C(=O)O)cc1Nc1ccccc1 |
| 72 to 73 | C#CCOc1ccc(OCC2OC2(C)C)cc1 (centres undefined) |
| 101 to 102 | COC(=O)CCCC(=O)N(C)CCc1c[nH]c2ccccc12 |
| 217 to 218 | CC(C)c1cccc(C(C)C)c1NC(=O)NCC1c2ccccc2-c2ccccc21 |
| 183 to 186 | O=C(N1CCc2cccc(O)c2CC1)C(F)(F)F |
| 178 to 180 | N#CN1CCC2(CC1)CN(c1ccc(Cl)cc1)c1ccccc12 |
| 200 to 201 | CC1=NC(=CC(=CN(C)C)c2ccc(C)cc2[N+](=O)[O-])C(=O)O1 |
| 172 to 173 | COC(=O)c1ccc(-c2nnc(-c3ccccc3)o2)cc1 |
| 204 to 207 | Clc1ccc(-c2c[nH]nc2-c2ccncc2)cc1 |
| 173 to 174 | COc1cccc(CNC(=O)c2nc3cccc(OCCO)c3c(=O)[nH]2)c1 |
| 154 to 156 | CC(C)NS(=O)(=O)c1ccc(-c2ccc3nnn(Cc4ccc5ncccc5c4)c3n2)cc1 |
| 134 to 135 | CC(=O)SCC(Cc1ccccc1)C(=O)Nc1cc(C(=O)OCc2ccccc2)ccc1C (centres undefined) |
| 153 to 157 | CCOC(=O)Cc1c(-c2cccnc2)c2cc(CN3CCN(c4ccccc4)CC3)c(Cl)cc2oc1=O |
| 204 to 205 | COC(=O)c1cn(C2CC2)c2nc(C)ccc2c1=O |
| > 250 | COc1ccc2cc(-c3ccc(Br)cc3)[nH]c(=O)c2c1 |
| 252 to 254 | O=C(O)CNC(=O)c1ccc(-c2ccc3nnn(Cc4ccc5ncccc5c4)c3n2)cc1F |
| 191 to 195 | CN1CCC(c2c[nH]c3ccc(O[Si](C)(C)C(C)(C)C)cc23)CC1 |
| 183 to 186 | C[C@@H]1c2onc(-c3ccc(Cl)cc3)c2CC[C@H]1C(=O)O (relative stereo) |
| 43.2 to 43.4 | CCCCCCCCCCCC(=O)c1ccc(-c2ccc(OCC(C)OC(=O)CCCCCC)c(Cl)c2)cc1 (centres undefined) |
| 110 | COC(=O)c1cccc(NC(=O)N(C)C)c1 |
| 156 to 159 | CC(=O)OCC1CC(n2c(Br)nc3cc(Cl)c(Cl)cc32)C(OC(C)=O)C1OC(C)=O (centres undefined) |
